From US20250129045A1, “SMALL MOLECULE PIM AND MTOR KINASE INHIBITOR AND METHODS OF USE THEREOF” (Arizona Board of Regents on Behalf of the University of …, priority 2022, published 2025)
Like-named read-outs stand apart in the source and are kept apart here.

How the values were obtained:
[1] = system: PC3-LN4 cells; assay: Western blotting of PC3-LN4 cell lysates; type: cell-based, human
Description: FIG. 7A: In vitro co-precipitation (Co-PPT) assay was performed with recombinant EDC3 and biotinylated Pim1 using Streptavidin beads with increasing concentrations of the Pim inhibitor VBT5445 (VBT). FIG. 7B: Kinase assays were performed with recombinant EDC3 and Pim1 with increasing concentrations of VBT. FIG. 7C: Cell lysates from PC3-LN4 cells cultured with DMSO, 10 μM VBT, 3 μM AZD5363 (AKTi) and the combination for 6 hrs were subjected to western blotting (WB). […] WBs were performed using the indicated antibodies. FIG. 7E: PC3-LN4 cells were seeded into 48 well plate and incubated with either DMSO, VBT, AZD5363 or the combination, for 4.5 days. A real-time imaging system (IncuCyte™) was used to measure cell proliferation using a non-label cell monolayer confluence approach. FIG. 7F-7H: GFP image in PC3 LN4 GFP EDC3 expressing cells treated with PIMi: VBT (5 μM) and VBT (5 μM)+AZD5363 (3 μM) for 6 hrs.
Extracts were subjected to Western blotting with the indicated antibodies.
(§1) Immunoblotting: Western blots were performed as described previously. Briefly, protein lysates (30 μg) were subjected to SDS-PAGE and transferred to nitrocellulose membranes. After blocking with 5% milk in TBST buffer for 30 min at room temperature, the membranes were incubated overnight at 4° C. with the Indicated primary antibody in 3% BSA in TBST. Specific proteins were detected with the corresponding HRP conjugated secondary antibody using enhanced chemiluminescence (GE Lifesciences, Piscataway, NJ).

[2] = system: Pim kinase; assay: Pim substrate phosphorylation in LNCaP prostate cancer cells (Western blot); type: cell-based; conditions: serum-starved conditions
Description: Right: LNCaP and LNCaP stably expressed Pim1 cells were treated with DMSO and GRG-1-34 ([…]) without FBS medium for 6 h. Lysates (25 μg) were subjected to western blotting with the antibodies for P-IRS1 (S1101), IRS1, P-elF4B (S406), elF4B, P-EDC3 (S161), EDC3, Pim1, and β-Actin.
as §1

[3] = system: PANC1 cells; assay: Reverse-phase protein array (RPPA) of PANC1 cells, Table 3; type: cell-based; conditions: 6 h treatment, divided by zero-time value, average of triplicate
Description: To further examine how these compounds function to inhibit tumor growth, changes in both a wide variety of phosphoprotein and protein levels using reverse-phase protein arrays (RPPA) were evaluated. […] The values in the RPPA obtained at these two time points were divided by the value at time zero to allow an evaluation of the changes caused by each drug treatment.

[4] = Plasma pharmacokinetics after oral dosing in mice; type: in vivo, mouse
Description: Plasma concentrations of GRG-1-34: These concentrations were determined by high performance liquid chromatography (HPLC) tandem mass spectrometry (MS). Quantification was achieved by GRG-1-34 calibration standards prepared in mouse plasma. GRG-1-34 in calibration standards or authentic samples was extracted by protein precipitation with methanol. After centrifugation, the supernatant was injected onto the HPLC-MS system. HPLC separation was achieved using a C-18 column and a gradient mobile phase of water and acetonitrile, both with 0.1% formic acid. The mass spectrometer was operated in the electrospray positive ion mode with selective reaction monitoring. The calibration curve was linear over the plasma concentration range of 2-1800 ng/ml. The pharmacokinetic analysis was performed using PKSolver 2.0 by a noncompartmental analysis. Murine gavage with GRG 1-34 was approved by the Animal Care Committee of the University of Arizona.
To examine the pharmacokinetics of this class of com-pounds GRG 1-34, one of the active isoforms, was given orally and blood was sampled from 3 mice at each time point (FIG. 21). The plasma concentration of GRG-1-34 peaked at 0.5 h after oral dosing and declined as a function of time. […] It has a large apparent volume of distribution (VZ/F) and apparent systemic clearance (CL/F), likely attributed to low systemic bioavailability (F) after oral dosing. At the maximum blood concentration of […], GRG-1-34 reached a concentration of 4 μM which in cell culture was sufficient to inhibit cell growth.

[5] = system: A549 lung cancer; assay: A549 lung cancer growth (crystal violet, 7 days); type: cell-based; conditions: 7 days of growth
Description: (§2) Cells were plated at 1000 cells per well and 24 h later treated with GRG compounds. After 7 days of growth, tumor cells were fixed with 4% paraformaldehyde, stained with 0.5% crystal violet in methanol and lysed in SDS. The absorbance of six samples treated with each compound or DMSO control was read at 570 nm. The error bars represent the Standard Deviation of these measurements

[6] = system: DU145 prostate cancer; assay: DU145 prostate cancer growth (crystal violet, 7 days); type: cell-based; conditions: 7 days of growth
Description: as §2
Cell growth was measured as in FIG. 17.

[7] = system: PC3-LN4 cells; assay: Western blotting of PC3-LN4 cell lysates; type: cell-based, human; conditions: PC3-LN4 cells with CRISPR/CAS9 knockout of TSC2 or DEPDC5

Structure (SMILES): O=c1c(CNCc2cc(Br)ccn2)cc2ccc(Cl)cc2n1CCOc1ccccc1 [GRG-1-34, 3-((((4-bromopyridin-2-yl)methyl)amino)methyl)-7-chloro-1-(2-phenoxyethyl) quinolin-2 (1H)-one]
- cellular level of Pim kinases [1]: decreases
- cellular level of c-Myc protein [1]: decreases
- mTORC1 activity: phosphorylation of the S6 protein [1]: inhibited the phosphorylation of the mTORC1 substrate S6 protein
- phosphorylation of AKT on serine 473 [1]: increased the phosphorylation of AKT on serine 473
- mTORC1 activity: phosphorylation of the S6 protein ([1]; listed as VBT 1-34): decreases
- Pim kinase activity: Pim substrate phosphorylation (IRS1, elF4B, EDC3) [2]: decreased Pim substrate phosphorylation
- Pim kinase activity: Pim substrate phosphorylation (IRS1, elF4B, EDC3) ([2]; listed as GRG 1-34): suppresses Pim kinase activity
- Pim kinase activity: Pim substrate phosphorylation (IRS1, elF4B, EDC3) ([2]; listed as VBT 1-34): inhibits Pim activity
- 4EBP1S65, RPPA value after treatment / zero-time value [3]: 0.52
- 4EBP1T70, RPPA value after treatment / zero-time value [3]: 0.75
- ATMS1981, RPPA value after treatment / zero-time value [3]: 0.46
- CICaspase3D175, RPPA value after treatment / zero-time value [3]: 1.09
- CofilinS3, RPPA value after treatment / zero-time value [3]: 0.46
- CrkIIY221, RPPA value after treatment / zero-time value [3]: 1.58
- ERKT202_Y204, RPPA value after treatment / zero-time value [3]: 2.39
- FAKY576_577, RPPA value after treatment / zero-time value [3]: 0.78
- FKHR-FOX01S256, RPPA value after treatment / zero-time value [3]: 0.71
- GSK3a_bS21_9, RPPA value after treatment / zero-time value [3]: 1.66
- HistoneH2AXS139, RPPA value after treatment / zero-time value [3]: 0.76
- HistoneH3S10, RPPA value after treatment / zero-time value [3]: 0.69
- IL-1bcleavedD116, RPPA value after treatment / zero-time value [3]: 0.41
- Jak1Y1022_1023, RPPA value after treatment / zero-time value [3]: 0.79
- MAPKpTEpY, RPPA value after treatment / zero-time value [3]: 1.35
- PDGFRbY751, RPPA value after treatment / zero-time value [3]: 7.02
- PP1aT320, RPPA value after treatment / zero-time value [3]: 0.47
- PaxillinY118, RPPA value after treatment / zero-time value [3]: 1.08
- RetY905, RPPA value after treatment / zero-time value [3]: 0.77
- S6RibosomalPS235_236, RPPA value after treatment / zero-time value [3]: 1.05
- S6RibosomalProtein S240_244, RPPA value after treatment / zero-time value [3]: 0.95
- SAPK_JNKT183_Y185, RPPA value after treatment / zero-time value [3]: 0.85
- Stat2Y690, RPPA value after treatment / zero-time value [3]: 2.89
- Stat3Y705, RPPA value after treatment / zero-time value [3]: 1.57
- Tyk2Y1054_1055, RPPA value after treatment / zero-time value [3]: 0.39
- VEGFR2Y1175, RPPA value after treatment / zero-time value [3]: 0.54
- YAPS127, RPPA value after treatment / zero-time value [3]: 0.68
- cAbIY245, RPPA value after treatment / zero-time value [3]: 0.87
- cKitY703, RPPA value after treatment / zero-time value [3]: 1.8
- p38MAPKT180_Y182, RPPA value after treatment / zero-time value [3]: 1.15
- p70S6KS371, RPPA value after treatment / zero-time value [3]: 0.62
- p70S6KT389, RPPA value after treatment / zero-time value [3]: 0.74
- p90RSKS380, RPPA value after treatment / zero-time value [3]: 1.51
- half-life ([4]; mouse, plasma, 62 mg/kg, oral, read-out: half-life (T1/2) (converted)): 2.08 h
- Cmax ([4]; mouse, plasma, oral, dose of 62 mg/kg, read-out: average maximum plasma concentration (Cmax)): 1990 ng/mL
- apparent systemic clearance (CL/F) ([4]; oral): large
- maximum blood concentration ([4]; oral): 2 ng/mL
- time at which the plasma concentration peaked after oral dosing ([4]; oral (gavage)): 0.5 h
- blood concentration reached at the maximum, molar ([4]; oral, level sufficient in cell culture to inhibit growth): 4 µM
- A549 lung cancer growth [5]: Inhibition
- A549 lung cancer growth ([5]; listed as VBT 1-34): shows activity
- DU145 prostate cancer growth [6]: Inhibition
- DU145 prostate cancer growth ([6]; listed as VBT 1-34): shows activity
- mTORC activity in TSC2 or DEPDC5 KO prostate tumor cells [7]: inhibits mTORC
